According to EPA's ToxValDB 9.5 (doi:10.2903/j.efsa.2012.2522):
Converted amounts (≈) assume the structure as drawn.

Columns and labels:
Apis mellifera = conditions: acute, mortality
Folsomia candida = conditions: chronic/long-term
Pimephales promelas = conditions: chronic/long-term; duration: 33 days; growth
Daphnia magna = conditions: chronic/long-term; duration: 21 days; reproduction
Bibionidae = conditions: chronic/long-term; duration: 28 days
Cyprinus carpio = conditions: acute; duration: 96 hours; mortality
[1] = reproduction developmental, body weight

SMILES: O=C(O)c1cn[nH]c1C(F)F [1H-3-Difluoromethylpyrazole-4-carboxylic acid]
- NOAEL (Oryctolagus sp.; [1]): 300 mg/kg-day

SMILES: Cn1cc(C(=O)O)c(C(F)F)n1 [3-(Difluoromethyl)-1-methyl-1H-pyrazole-4-carboxylic acid]
- NOAEL (Oryctolagus sp.; reproduction developmental, no effects): 250 mg/kg-day

SMILES: Cn1cc(C(=O)Nc2ccccc2-c2cc(F)c(F)c(F)c2)c(C(F)F)n1 [Fluxapyroxad]
- LD50 (Anas platyrhynchos; acute, oral, unspecified, mortality): > 2000 mg/kg-day
- NOEC (Anas platyrhynchos; reproductive): 33.6 mg/kg-day
- LC50 (Anas platyrhynchos; short-term, oral, feed, mortality): > 1720 mg/kg-day
- LD50 (Apis mellifera; dermal): > 100 µg/piece
- LD50 (Apis mellifera; oral, unspecified): > 111 µg/piece
- NOEC (Folsomia candida): 2.99 mg/kg
- NOEC (Pimephales promelas): 0.0359 mg/L
- NOAEL (Oryctolagus sp.; developmental, development): 25 mg/kg-day
- LC50 (Tagia sp.; acute, mortality): > 1000 mg/kg
- NOEC (Tagia sp.; chronic/long-term, duration: 56 days): 21.3 mg/kg
- NOEC (Daphnia magna): 0.5 mg/L
- NOEC (Bibionidae): 75.9 mg/L
- LD50 (Rattus norvegicus; acute, oral, mortality): > 2000 mg/kg-day
- NOAEL (Rattus norvegicus; chronic, duration: 2 years, organ weight): 2.1 mg/kg-day
- NOAEL (Rattus norvegicus; [1]): 25 mg/kg-day
- NOAEL (Rattus norvegicus; subchronic, duration: 90 days, oral, organ weight): 6 mg/kg-day
- LC50 (Cyprinus carpio): 0.29 µg/mL (≈ 0.761 µM)
- LC50 (Colinus virginianus; acute, oral, diet, mortality): > 912 mg/kg-day
- LD50 (Colinus virginianus; acute, oral, mortality): > 2000 mg/kg-day
- NOEC (Colinus virginianus; reproduction developmental): 74.6 mg/kg-day
